Source: patent US20190084968A1, “FUMAGILLOL HETEROCYCLIC COMPOUNDS AND METHODS OF MAKING AND USING SAME” (Zafgen, Inc., priority 2015, published 2019)
Structures can show the parent of a compound that is named as a salt.

Key:
recombinant human MetAP2 = biological target: T1, recombinant human MetAP2 (Homo sapiens, UniProt P50579); assay: Recombinant human MetAP2 enzyme inhibition assay (MAS peptide / amino acid oxidase / Amplex UltraRed); type: biochemical
T1 construct: Flag; made in house
Procedure: Compounds are tested for their capacity to inhibit recombinant human MetAP2 activity using the following assay.
Flag tagged Human recombinant MetAP2 expressed and isolated for use as the enzyme source. 10 mM stock solutions of compounds were prepared in 100% DMSO and further diluted in 100% DMSO required concentration to 1 mM stocks. The stock compound solutions and DMSO vehicle controls were diluted to target final compound concentrations using assay buffer to a final concentration of 50 mM HEPES containing 100 mM NaCl, pH adjusted to 7.5. The MAS peptide was formulated to a 7.5 mM stock in distilled water and prior to use further diluted 1:4. […] 40 μl of enzyme was mixed with 100 μl of MnCl2 then further diluted in assay buffer to a final concentration of 16 μg/ml. To test for compound effect on MetAP2 enzyme activity, 5 μl of test compound, 10 μl of MAS substrate/amino acid oxidase mixture, 10 μl of MetAP2 was added to test wells in a 384 well black plate with blank wells containing no enzyme, replaced with 10 μl of assay buffer. All compounds were tested in duplicate on two occasions on the same day.
The plate was sealed with a TopSeal A cover and mixed briefly on an orbital mixer at 900 rpm. The plate was incubated for a further 25 minutes at 25° C. A 5× stock of Amplex buffer was prepared (0.25M sodium phosphate, pH 7.4) and stored at 4° C. When preparing for use the stock was diluted with distilled water. […] 25 μl detection reagent was added to each well of the test plate, which was re-sealed and mixed briefly on an orbital shaker. […] At the end of the MetAP2 incubation 25 μl Amplex/HRP mixture per well was added and the plate read plate on a plate reader.

[1] = system: Diet Induced Obese (DIO) C57BL/6 mice; assay: 10 day DIO mouse model (body weight, food intake, hematology, blood chemistry); type: in vivo; conditions: mouse, in vivo, sc, 0.3 mg/kg
Text: The objective of this study design was to investigate the efficacy of disclosed compounds in a 10 day DIO mouse model. Effects on body weight, food intake, hematology and blood chemistry were the primary readouts of this study design. […] Mice were fed Research Diets D12492 (60% Kcal fat, 20% Kcal carbohydrate and 20% protein) and provided water ad libitum. DIO mice were received and housed in the facility for approximately two weeks prior to the start of test article administration. On Day −4 or −3, mice were randomized into study groups based on body weight and body weights were continued to be recorded daily for the duration of the study. Daily food intake was assessed starting on Study Day −2 by weighing of the food with hopper together to avoid loss of food in transfer.
(§1) Compounds were formulated into a 100% DMSO stock (at 9 mg/mL) prior to the start, and further diluted into the target working concentration using the vehicle of 10% DMSO in water. Prior to test article administration, starting on Day −3 a dosing acclimation occured with all animals receiving a subcutaneous injection of vehicle (10% DMSO) only for 3 days. Starting on Day 1, test compounds or vehicle were administered based on individual body weight, subcutaneously, once a day for 10 days. All mice were sacrificed on Day 11, 24 hours following the final dosing on Day 10. After sacrifice, whole blood was collected and analyzed for hematology and blood chemistry parameters.
(§2) Compounds were tested vs. vehicle at various doses (1.0, 0.5, 0.3, 0.1, 0.03 mpk sc (mg per kg animal weight delivered subcutaneously), and the results are shown in Table 2 below.

[2] = system: Sprague Dawley rats on high fat diet (DIO); assay: 11 day rat DIO model (body weight, food intake, hematology, blood chemistry); type: in vivo; conditions: rat, in vivo, sc
Text: The objective of this study design is to investigate the efficacy of disclosed compounds in an 11 day rat DIO model used to screen compounds for pharmacologic efficacy on endpoints related to obesity and metabolism. Effects on body weight, food intake, hematology and blood chemistries were the primary readouts of this study design. […] Rats were fed Research Diets D12451 (45% High Fat) and provided water ad libitum. Rats were received and housed in the facility for at least two or three weeks prior to start of test article administration. On Day −4 or −3, rats were randomized into study groups based on body weight and body weights were continued to be recorded daily for the duration of the study. Daily food intake was assessed starting on Study Day −2 by weighing the hopper including the food to avoid loss of food in transfer.
as §1, with “for 11” for “for 10”, “All animals” for “All mice”, “11, approximately 2” for “11, 24”, “Day 11.” for “Day 10.”
as §2

[3] = system: embryo/fetal development in pregnant Sprague Dawley rats; conditions: 6 mpk subcutaneously once every three days, Gestation Days 6-18, pregnant rats
Procedure: The objective of this study design was to evaluate the potential effects of disclosed compounds on embryo/fetal development when given subcutaneously to pregnant rats once every three days during the critical period of organogenesis (Gestation Days 6-18). Female, Sprague Dawley rats, approximately 10 weeks of age, time bred, were ordered from a certified vendor and housed individually housed in stainless steel cages suspended over flush pans, on a 12-hour light-dark cycle (0700-1900) at 20-26° C. and 30-70% humidity. Rats were fed a standard rodent chow and provided water ad libitum. Rats were received and housed in the facility for a period of approximately 1 to 2 days.
Compounds were formulated using 100% DMSO mixed in Sterile Water for Injection, resulting in 2% DMSO solution in water. If necessary, due to limited solubility of a test article, a higher percentage of DMSO solution in water was used. Groups of 8 mated and presumed pregnant female rats were given subcutaneous doses of vehicle or test article, once every three days, beginning on Gestation Day 6 and ending on Gestation Day 18 (Days 6, 9, 12, 15, and 18), maintained two more days, and then euthanized and necropsied on Gestation Day 20. Body weights was recorded for all animals on Gestation Days 5 (purpose of randomization), 6, 9, 12, 15, 18, and 20 (scheduled euthanasia). Food consumption by weight was recorded on Gestation Days 6, 9, 12, 15, 18, and 20 (scheduled termination).
At necropsy, the dams were examined visually for external abnormalities including palpable masses. The abdominal, thoracic, and cranial cavities and their contents were examined for abnormalities and findings will be recorded. The reproductive tract were examined to record the number of ovarian corpora lutea, the number and location of uterine implantation sites noting the position of the cervix, and the number of early resorptions, late resorptions, live fetuses, and dead fetuses. For dead fetuses and late resorptions, crown-to-rump length and weight were recorded, if possible, and the fetus was discarded. For viable fetuses, weight, sex, and grossly visible external abnormalities were recorded.

T1 sequence (P50579 whole entry): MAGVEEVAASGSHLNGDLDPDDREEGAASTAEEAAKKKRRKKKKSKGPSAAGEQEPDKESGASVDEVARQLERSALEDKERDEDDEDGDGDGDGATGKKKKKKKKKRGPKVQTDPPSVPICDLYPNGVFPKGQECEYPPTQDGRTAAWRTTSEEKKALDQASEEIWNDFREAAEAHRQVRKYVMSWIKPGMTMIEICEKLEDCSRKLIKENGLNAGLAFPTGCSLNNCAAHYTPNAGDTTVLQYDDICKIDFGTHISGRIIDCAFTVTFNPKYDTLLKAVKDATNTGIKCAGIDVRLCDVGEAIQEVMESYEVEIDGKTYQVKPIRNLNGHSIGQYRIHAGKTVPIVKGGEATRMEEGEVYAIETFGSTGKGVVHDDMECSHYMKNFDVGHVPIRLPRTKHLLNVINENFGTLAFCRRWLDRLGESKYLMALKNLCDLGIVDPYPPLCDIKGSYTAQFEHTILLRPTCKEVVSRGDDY

SMILES | IC50 (recombinant human MetAP2) | DIO Mouse 10-day weight loss vs vehicle at indicated dose [1] | DIO Rat 11-day weight loss vs vehicle at indicated dose ([2]; 0.3 mg/kg) | DIO Rat 11-day weight loss vs vehicle at indicated dose ([2]; 1 mg/kg) | Rat Embryofetal @6 mpk [3]
CO[C@@H]1[C@H](OC(=O)N2CC(CCN3CC(C)(O)C3)C2)CC[C@]2(CO2)[C@H]1[C@@]1(C)O[C@@H]1CC=C(C)C [Example 9, (3R,4S,5S,6R)-5-methoxy-4-((2R,3R)-2-methyl-3-(3-methylbut-2-enyl)oxiran-2-yl)-1-oxaspiro[2.5]octan-6-yl 3-(2-(3-hydroxy-3-methylazetidin-1-yl)ethyl)azetidine-1-carboxylate formate] | < 50 nM | 7.4% | 5.5% | 4.8% | Positive
CO[C@@H]1[C@H](OC(=O)N2CC(CCN3CC4C(C3)C4(F)F)C2)CC[C@]2(CO2)[C@H]1[C@@]1(C)O[C@@H]1CC=C(C)C (stereo partly drawn) [Example 22, (3R,4S,5S,6R)-5-methoxy-4-((2R,3R)-2-methyl-3-(3-methylbut-2-enyl)oxiran-2-yl)-1-oxaspiro[2.5]octan-6-yl 3-(2-(6,6-difluoro-3-azabicyclo[3.1.0]hexan-3-yl)ethyl)azetidine-1-carboxylate formate] | < 50 nM | 14% |  |  | Negative
CO[C@@H]1[C@H](OC(=O)N2CC(CCN3CC(O)C3)C2)CC[C@]2(CO2)[C@H]1[C@@]1(C)O[C@@H]1CC=C(C)C [Example 6, (3R,4S,5S,6R)-5-methoxy-4-((2R,3R)-2-methyl-3-(3-methylbut-2-enyl)oxiran-2-yl)-1-oxaspiro[2.5]octan-6-yl 3-(2-(3-hydroxyazetidin-1-yl)ethyl)azetidine-1-carboxylate formate] | < 50 nM | 11.8% | 0.8% | 4.6% | Positive
